Measurements taken from ChEMBL document CHEMBL1201862, “PubChem BioAssay data set” (2004).
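Exposure lasted 48 hours, with cells grown in 96-well plates and compounds tested at five concentrations. The concentration for 50% growth inhibition is given as GI50.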 The source made the active and inactive calls. Rule as the data show it: active = GI50 up to about 1.1 µM and inactive = higher.

How the values were obtained:
Assay in all cases: growth of human tumour cells (NCI), 48 h
786-0 = test system: 786-0
A498 = test system: A498
A549 = test system: A549
ACHN = test system: ACHN
BT-549 = test system: BT-549
CAKI-1 = test system: CAKI-1
CCRF-CEM = test system: CCRF-CEM
COLO 205 = test system: COLO 205
DU-145 = test system: DU-145
EKVX = test system: EKVX
HCC 2998 = test system: HCC 2998
HCT-116 = test system: HCT-116
HCT-15 = test system: HCT-15
HL-60 = test system: HL-60
HOP-62 = test system: HOP-62
HOP-92 = test system: HOP-92
HT-29 = test system: HT-29
Hs-578T = test system: Hs-578T
IGROV-1 = test system: IGROV-1
KM12 = test system: KM12
LOX IMVI = test system: LOX IMVI
M14 = test system: M14
MCF7 = test system: MCF7
MDA-MB-231 = test system: MDA-MB-231
MDA-MB-435 = test system: MDA-MB-435
MDA-N = test system: MDA-N
MOLT-4 = test system: MOLT-4
Malme-3M = test system: Malme-3M
NCI-H226 = test system: NCI-H226
NCI-H23 = test system: NCI-H23
NCI-H460 = test system: NCI-H460
NCI-H522 = test system: NCI-H522
NCI/ADR-RES = test system: NCI/ADR-RES
OVCAR-3 = test system: OVCAR-3
OVCAR-4 = test system: OVCAR-4
OVCAR-5 = test system: OVCAR-5
OVCAR-8 = test system: OVCAR-8
PC-3 = test system: PC-3
RPMI-8226 = test system: RPMI-8226
RXF 393 = test system: RXF 393
SF-268 = test system: SF-268
SF-295 = test system: SF-295
SF-539 = test system: SF-539
SK-MEL-28 = test system: SK-MEL-28
SK-MEL-2 = test system: SK-MEL-2
SK-MEL-5 = test system: SK-MEL-5
SK-OV-3 = test system: SK-OV-3
SN12C = test system: SN12C
SNB-19 = test system: SNB-19
SNB-75 = test system: SNB-75
SR = test system: SR
SW-620 = test system: SW-620
T47D = test system: T47D
TK-10 = test system: TK-10
U-251 = test system: U-251
UACC-257 = test system: UACC-257
UACC-62 = test system: UACC-62

COC(=O)[C@@H]1Cc2cc(O)c(O)cc2C2(CCN(C)CC2)O1
GI50 (786-0): > 10 µM (inactive) | GI50 (A498): > 10 µM (inactive) | GI50 (A549): > 10 µM (inactive) | GI50 (ACHN): > 10 µM (inactive) | GI50 (BT-549): > 10 µM (inactive) | GI50 (CAKI-1): > 10 µM (inactive) | GI50 (CCRF-CEM): > 10 µM (inactive) | GI50 (COLO 205): > 10 µM (inactive) | GI50 (DU-145): > 10 µM (inactive) | GI50 (EKVX): > 10 µM (inactive) | GI50 (HCC 2998): > 10 µM (inactive) | GI50 (HCT-116): > 10 µM (inactive) | GI50 (HCT-15): > 10 µM | GI50 (HL-60): > 10 µM (inactive) | GI50 (HOP-62): > 10 µM (inactive) | GI50 (HOP-92): > 10 µM (inactive) | GI50 (HT-29): > 10 µM (inactive) | GI50 (Hs-578T): > 10 µM (inactive) | GI50 (IGROV-1): > 10 µM (inactive) | GI50 (KM12): > 10 µM (inactive) | GI50 (LOX IMVI): > 10 µM (inactive) | GI50 (M14): > 10 µM (inactive) | GI50 (MCF7): > 10 µM (inactive) | GI50 (MDA-MB-231): > 10 µM (inactive) | GI50 (MDA-MB-435): > 10 µM (inactive) | GI50 (MDA-N): > 10 µM (inactive) | GI50 (MOLT-4): > 10 µM (inactive) | GI50 (Malme-3M): > 10 µM (inactive) | GI50 (NCI-H226): > 10 µM (inactive) | GI50 (NCI-H23): > 10 µM (inactive) | GI50 (NCI-H460): > 10 µM (inactive) | GI50 (NCI-H522): > 10 µM (inactive) | GI50 (NCI/ADR-RES): > 10 µM (inactive) | GI50 (OVCAR-3): > 10 µM (inactive) | GI50 (OVCAR-4): > 10 µM (inactive) | GI50 (OVCAR-5): > 10 µM (inactive) | GI50 (OVCAR-8): > 10 µM (inactive) | GI50 (PC-3): > 10 µM (inactive) | GI50 (RPMI-8226): > 10 µM (inactive) | GI50 (RXF 393): > 10 µM (inactive) | GI50 (SF-268): > 10 µM (inactive) | GI50 (SF-295): > 10 µM (inactive) | GI50 (SF-539): > 10 µM (inactive) | GI50 (SK-MEL-28): > 10 µM (inactive) | GI50 (SK-MEL-2): > 10 µM (inactive) | GI50 (SK-MEL-5): > 10 µM (inactive) | GI50 (SK-OV-3): > 10 µM (inactive) | GI50 (SN12C): > 10 µM (inactive) | GI50 (SNB-19): > 10 µM (inactive) | GI50 (SNB-75): > 10 µM (inactive) | GI50 (SR): > 10 µM (inactive) | GI50 (SW-620): > 10 µM (inactive) | GI50 (T47D): > 10 µM (inactive) | GI50 (TK-10): > 10 µM (inactive) | GI50 (U-251): > 10 µM (inactive) | GI50 (UACC-257): > 10 µM (inactive) | GI50 (UACC-62): > 10 µM (inactive)
